Experimental data taken from patent publication US10308689B2, “Dengue virus (DV) polypeptide sequences, T cell epitopes and methods and uses thereof” (LA JOLLA INSTITUTE FOR ALLERGY AND IMMUNOLOGY, priority 2010, dated 2019).
Ends that are not written are not given here.

Test system: PBMC of healthy adult blood donors from Colombo, Sri Lanka
Assay: Ex vivo IFNγ ELISPOT, HLA-matched PBMC of Sri Lankan blood donors
Format: cell-based, human
Parameters: Total Response per epitope: unit not given here
Conditions: for # donors responded: number of donors responding to the epitope; for T cell response [SFC]: ex vivo IFNγ SFC/10^6 PBMC; for # of responders: responding donors, HLA allele(s)
[1] = IFNγ ELISPOT response summed over responding donors, per epitope
[2] = HLA-matched PBMC, proteome-wide screen
[3] = restricting HLA allele and serotype as given
[4] = total over responding donors, restricting HLA allele and serotype as given
[5] = HLA allele, supertype and serotype
[6] = summed IFNγ ELISPOT response per epitope, HLA allele and serotype as given

Compound | Total Response per epitope [1] | # donors responded [2] | # donors responded [3] | Total Response per epitope [4] | also measured
CSCC[C@H](NC(=O)[C@@H](NC(=O)[C@H](Cc1ccc(O)cc1)NC(=O)[C@H](CO)NC(=O)[C@@H](N)CCSC)[C@@H](C)O)C(=O)N[C@@H](CS)C(=O)N[C@@H](CO)C(=O)NCC(=O)N[C@@H](CCCCN)C(=O)O | 23.3 | 1 | – | – | –
CSCC[C@H](NC(=O)[C@H](CC(C)C)NC(=O)[C@H](CO)NC(=O)[C@H](Cc1c[nH]c2ccccc12)NC(=O)[C@H](CCSC)NC(=O)[C@H](CCC(N)=O)NC(=O)[C@H](C)NC(=O)[C@@H](N)Cc1ccc(O)cc1)C(=O)N[C@@H](Cc1ccc(O)cc1)C(=O)O | 38.3 | 1 | – | – | –
HPGAGKTKRY | – | – | 10 | 3046.7 | T cell response [SFC] (per epitope): 3047 SFC; # of responders: 10
CC[C@H](C)[C@H](NC(=O)[C@@H](NC(=O)[C@@H]1CCCN1C(=O)[C@@H](N)CO)[C@@H](C)CC)C(=O)N[C@@H](CC(N)=O)C(=O)N[C@@H](CCCNC(=N)N)C(=O)N[C@@H](CCC(=O)O)C(=O)NCC(=O)N[C@@H](CCCCN)C(=O)N[C@H](C(=O)O)C(C)C | 106.7 | 1 | – | – | –
CC(C)C[C@H](NC(=O)[C@H](CCC(=O)O)NC(=O)[C@H](CC(C)C)NC(=O)[C@H](CCCCN)NC(=O)CNC(=O)[C@H](CC(C)C)NC(=O)[C@H](Cc1c[nH]cn1)NC(=O)[C@H](Cc1c[nH]c2ccccc12)NC(=O)[C@@H]1CCCN1C(=O)CN)C(=O)O | – | – | 2 | 495.0 | –
MVSRLLLNR | 28.3 | 1 | – | – | –
KVLNPYMPSV | 63.3 | 1 | – | – | –
CC(C)C[C@H](NC(=O)[C@H](CC(C)C)NC(=O)[C@@H](NC(=O)[C@H](C)NC(=O)[C@H](C)NC(=O)[C@@H](NC(=O)[C@H](CC(C)C)NC(=O)[C@@H](N)[C@@H](C)O)[C@@H](C)O)C(C)C)C(=O)N[C@@H](CC(C)C)C(=O)N[C@H](C(=O)O)C(C)C | 66.7 | 1 | – | – | –
KEGVFHTMW | – | – | 1 | 178.3 | –
CC[C@H](C)[C@H](NC(=O)[C@@H](NC(=O)[C@H](CO)NC(=O)[C@@H]1CCCN1C(=O)[C@@H](N)CCSC)C(C)C)C(=O)N[C@@H](CCC(=O)O)C(=O)N[C@@H](CCCCN)C(=O)N[C@@H](CCSC)C(=O)N[C@@H](CCC(=O)O)C(=O)N[C@H](C(=O)O)[C@@H](C)O | 783.3 | 2 | – | – | –
CSCC[C@H](NC(=O)[C@H](CC(N)=O)NC(=O)[C@@H](NC(=O)[C@H](CO)NC(=O)[C@H](CO)NC(=O)[C@@H](N)C(C)C)C(C)C)C(=O)N[C@H](C(=O)N[C@@H](CO)C(=O)N[C@@H](CCCNC(=N)N)C(=O)N[C@@H](CC(C)C)C(=O)O)C(C)C | – | – | – | – | # donors responded [5]: 1; Total Response per epitope [6]: 421.7
CSCC[C@H](NC(=O)[C@H](CCSC)NC(=O)[C@H](CC(C)C)NC(=O)[C@@H](N)CS)C(=O)N[C@@H](CCSC)C(=O)N[C@@H](CC(C)C)C(=O)N1CCC[C@H]1C(=O)N[C@@H](C)C(=O)N[C@H](C(=O)N[C@@H](CC(C)C)C(=O)O)[C@@H](C)O | – | – | 1 | 78.3 | –
CC(C)C[C@H](NC(=O)[C@H](CCC(N)=O)NC(=O)[C@H](CC(N)=O)NC(=O)[C@H](CC(=O)O)NC(=O)[C@H](CCC(N)=O)NC(=O)[C@@H]1CCCN1C(=O)[C@@H](N)[C@@H](C)O)C(=O)N[C@H](C(=O)N[C@@H](Cc1ccc(O)cc1)C(=O)O)[C@@H](C)O | – | – | – | – | # donors responded [5]: 1; Total Response per epitope [6]: 75.0
CC[C@H](C)[C@H](NC(=O)[C@H](CC(C)C)NC(=O)[C@H](C)NC(=O)[C@H](CC(C)C)NC(=O)[C@H](CC(C)C)NC(=O)[C@@H](N)CCSC)C(=O)N[C@@H](C)C(=O)N[C@H](C(=O)N[C@@H](CC(C)C)C(=O)O)C(C)C | 81.7 | 1 | – | – | –
GEFRLRGEQR | – | – | 3 | 1373.3 | T cell response [SFC] (per epitope): 1373 SFC; # of responders: 3
IETTILDVDL | 1413.3 | 2 | – | – | –
CSCC[C@H](N)C(=O)N[C@H](C(=O)N[C@@H](CCC(N)=O)C(=O)N[C@@H](CCCCN)C(=O)N[C@@H](C)C(=O)N[C@@H](CCCNC(=N)N)C(=O)N[C@@H](CC(N)=O)C(=O)N[C@@H](C)C(=O)N[C@@H](CC(C)C)C(=O)O)[C@@H](C)O [MTQKARNAL] | 268.3 | 2 | – | – | –
CC[C@H](C)[C@H](N)C(=O)N1CCC[C@H]1C(=O)N[C@@H](CCSC)C(=O)N[C@@H](CO)C(=O)N[C@H](C(=O)N[C@@H](Cc1ccc(O)cc1)C(=O)NCC(=O)N[C@@H](Cc1c[nH]c2ccccc12)C(=O)N[C@@H](CC(N)=O)C(=O)N[C@@H](CC(C)C)C(=O)O)[C@@H](C)O | – | – | 3 | 320.0 | –
FLMVLLIPEP | – | – | 1 | 28.3 | –
RASFIEVKTC | 290.0 | 2 | – | – | –

Compound | Total Response per epitope [1] | # donors responded [2] | # donors responded [3] | Total Response per epitope [4] | also measured
GFFLRKLTSR | – | – | 1 | 81.7 | –
CSCC[C@H](NC(=O)[C@H](CO)NC(=O)[C@@H]1CCCN1C(=O)[C@@H](N)CCSC)C(=O)N[C@@H](CCCCN)C(=O)N[C@@H](CCCNC(=N)N)C(=O)N[C@@H](Cc1ccccc1)C(=O)N[C@@H](CCCNC(=N)N)C(=O)N[C@@H](CCCNC(=N)N)C(=O)N[C@@H](CCC(=O)O)C(=O)O | 1336.7 | 5 | – | – | –
CC(C)C[C@H](NC(=O)[C@H](CC(C)C)NC(=O)[C@H](CC(C)C)NC(=O)[C@@H](NC(=O)[C@H](CCC(=O)O)NC(=O)[C@H](CC(C)C)NC(=O)[C@@H](NC(=O)[C@H](CCC(=O)O)NC(=O)[C@@H]1CCCN1C(=O)[C@@H](N)CC(C)C)[C@@H](C)O)[C@@H](C)O)C(=O)O | 296.7 | 4 | – | – | –
CC(C)C[C@H](NC(=O)[C@H](CCCNC(=N)N)NC(=O)[C@H](Cc1c[nH]cn1)NC(=O)[C@H](CC(=O)O)NC(=O)[C@H](CS)NC(=O)[C@H](CC(C)C)NC(=O)[C@H](CCC(N)=O)NC(=O)[C@@H](NC(=O)[C@H](Cc1ccc(O)cc1)NC(=O)[C@@H](N)C(C)C)[C@@H](C)O)C(=O)O | – | – | – | – | # donors responded [5]: 1; Total Response per epitope [6]: 21.7
GAMLFLISGK | – | – | 1 | 23.3 | –
CC(C)C[C@H](NC(=O)[C@H](CCCNC(=N)N)NC(=O)[C@@H]1CCCN1C(=O)[C@@H](N)CCCCN)C(=O)N[C@@H](CS)C(=O)N[C@H](C(=O)N[C@@H](CCCNC(=N)N)C(=O)N[C@@H](CCC(=O)O)C(=O)N[C@@H](CCC(=O)O)C(=O)N[C@@H](Cc1ccccc1)C(=O)O)[C@@H](C)O | – | – | 1 | 350.0 | T cell response [SFC] (per epitope): 350 SFC; # of responders: 1
CSCC[C@H](NC(=O)[C@H](CO)NC(=O)[C@H](Cc1ccc(O)cc1)NC(=O)[C@H](CO)NC(=O)[C@@H](N)CCSC)C(=O)N[C@@H](CS)C(=O)N[C@H](C(=O)NCC(=O)N[C@@H](CCCCN)C(=O)N[C@@H](Cc1ccccc1)C(=O)O)[C@@H](C)O | 2553.3 | 6 | – | – | T cell response [SFC] (per epitope): 2553 SFC; # of responders: 6
CC[C@H](C)[C@H](NC(=O)[C@@H](NC(=O)[C@H](CC(=O)O)NC(=O)[C@H](CCSC)NC(=O)[C@@H](NC(=O)[C@H](C)NC(=O)CNC(=O)[C@H](CCCCN)NC(=O)[C@@H]1CCCN1C(=O)[C@@H](N)[C@@H](C)O)C(C)C)[C@@H](C)CC)C(=O)O | – | – | – | – | # donors responded [5]: 1; Total Response per epitope [6]: 105.0
YTPEGIIPTL | – | – | – | – | # donors responded [5]: 1; T cell response [SFC] (per epitope): 872 SFC; # of responders: 1; Total Response per epitope [6]: 871.7
CC[C@H](C)[C@H](NC(=O)[C@H](CC(C)C)NC(=O)[C@H](CS)NC(=O)[C@H](CC(C)C)NC(=O)[C@H](CC(C)C)NC(=O)[C@@H](N)[C@@H](C)O)C(=O)N1CCC[C@H]1C(=O)N[C@H](C(=O)N[C@H](C(=O)O)C(C)C)[C@@H](C)O | – | – | – | 53.3 | –
LMMILPAAL | 46.7 | 1 | – | – | –
CC(C)C[C@H](NC(=O)[C@H](CCCNC(=N)N)NC(=O)[C@@H]1CCCN1C(=O)[C@@H](N)CC(N)=O)C(=O)N[C@@H](CS)C(=O)N[C@H](C(=O)N[C@@H](CCCNC(=N)N)C(=O)N[C@@H](CCC(=O)O)C(=O)N[C@@H](CCC(=O)O)C(=O)N[C@@H](Cc1ccccc1)C(=O)O)[C@@H](C)O | – | – | 1 | 365.0 | T cell response [SFC] (per epitope): 365 SFC; # of responders: 1
SPKRLATAIA | 68.3 | 1 | – | – | –
REIPERSWNT | 1278.3 | 2 | – | – | –
MPVTVASAAQ | 51.7 | 1 | – | – | –
CC(C)C[C@H](NC(=O)[C@H](CC(C)C)NC(=O)[C@@H](NC(=O)[C@H](C)NC(=O)[C@H](C)N)C(C)C)C(=O)N[C@@H](CC(C)C)C(=O)N[C@H](C(=O)N[C@H](C(=O)N[C@@H](Cc1c[nH]cn1)C(=O)N[C@@H](Cc1ccc(O)cc1)C(=O)O)[C@@H](C)O)C(C)C | – | – | 2 | 393.3 | –
CC[C@H](C)[C@H](NC(=O)[C@H](CCCCN)NC(=O)[C@H](CO)NC(=O)[C@H](CO)NC(=O)CN)C(=O)N[C@@H](CCCNC(=N)N)C(=O)N[C@@H](Cc1c[nH]c2ccccc12)C(=O)N[C@H](C(=O)N[C@H](C(=O)N[C@@H](CCC(=O)O)C(=O)O)C(C)C)[C@@H](C)CC [GSSKIRWIVE] | – | – | 2 | 111.7 | –
CC(C)C[C@H](NC(=O)[C@H](CO)NC(=O)[C@H](CC(N)=O)NC(=O)[C@H](CCC(=O)O)NC(=O)[C@H](CCCNC(=N)N)NC(=O)[C@H](CO)NC(=O)[C@@H](N)Cc1ccccc1)C(=O)N[C@@H](CO)C(=O)NCC(=O)N[C@H](C(=O)O)C(C)C | – | – | 1 | 101.7 | –
KSGAIKVLK | – | – | 1 | 48.3 | –
